Source: patent US5290757A (priority 1993, dated 1994)
Where a SMILES comes first, the peptide text is derived from it.

Key:
[1] = system: creeping bentgrass (Agrostis palustris); assay: Soil pot study of dipeptide bioactivity on creeping bentgrass; assay type: in vivo; details: for Mean root length of creeping bentgrass seedlings / Percentage of creeping bentgrass plants surviving: 21 days after treatment
Procedure: In a study designed to verify the bioactivity of the dipeptides on soil, Ala-Gln and Gly-Ala were applied to the surface of 56.3 cm^2 plastic pots filled with a Nicollet (fine, loamy, […], Aquic Hapludol soil. The two dipeptides were applied at 0 to 3552 mg/dm^2. […] The test specie was creeping bentgrass (Agrostis palustris).

[2] = system: perennial ryegrass (Lolium perenne) seeds; assay: Petri dish root-inhibition bioassay on perennial ryegrass seeds; assay type: in vivo; details: for Root Length of Perennial Ryegrass Seedlings Expressed as a Percentage of the Control: average of 2 trials; for relative effectiveness among the five dipeptides: perennial ryegrass root inhibition
Procedure: Bioactive fractions of the eluate were identified with bioassays, then pooled and subjected to further purification steps. […] The dishes were sealed with parafilm and placed in a controlled environmental chamber. The light intensity in the growth chamber was 70 μmol m^-2 s^-1 at 25° C./15° C. day/night temperature with a 16 hr photoperiod. One ml of a given eluate fraction was applied to the filter paper in each petri dish. The study was conducted with seven replications for each eluate fraction. […] Louis, Mo. The fifth, Gln-Gln, was obtained from Bachem Bioscience Inc. The activity of each synthetically derived peptide was tested in seven replications on perennial ryegrass using the same bioassay technique described in Example 4 in the presence of increasing amounts of the dipeptides mixed with distilled water (Table V).

[3] = concentrations of 1.8 g/dm^2 and above
[4] = much lower concentrations than 1.8 g/dm^2
[5] = 8 μg/cm^2 dipeptide on filter paper
[6] = 13 μg/cm^2 dipeptide on filter paper
[7] = 21 μg/cm^2 dipeptide on filter paper
[8] = 26 μg/cm^2 dipeptide on filter paper
[9] = 31 μg/cm^2 dipeptide on filter paper
[10] = 39 μg/cm^2 dipeptide on filter paper
[11] = 52 μg/cm^2 dipeptide on filter paper

For `C[C@H](N)C(=O)N[C@@H](CCC(N)=O)C(=O)O` [Ala-Gln, alaninyl-glutamine] (H-Ala-Gln-OH), the “Mean root length of creeping bentgrass seedlings” value (from here on “Mean root length”) ([1]; 89 mg/dm^2 on soil surface) was 20 mm, the “Percentage of creeping bentgrass plants surviving” value ([1]; 89 mg/dm^2 on soil surface) was 100% and the “Mean root length” value ([1]; 178 mg/dm^2 on soil surface) was 15 mm. The “Percentage of creeping bentgrass plants surviving” value ([1]; 178 mg/dm^2 on soil surface) was 40%, the “Mean root length” value ([1]; 355 mg/dm^2 on soil surface) was 2 mm and the “Percentage of creeping bentgrass plants surviving” value ([1]; 355 mg/dm^2 on soil surface) was 30%. The “Mean root length” value ([1]; 710 mg/dm^2 on soil surface) was 0 mm, the “Percentage of creeping bentgrass plants surviving” value ([1]; 710 mg/dm^2 on soil surface) was 25% and the “Mean root length” value ([1]; 1066 mg/dm^2 on soil surface) was 0 mm. The “Percentage of creeping bentgrass plants surviving” value ([1]; 1066 mg/dm^2 on soil surface) was 5%, the “Mean root length” value ([1]; 1776 mg/dm^2 on soil surface) was 0 mm and the “Percentage of creeping bentgrass plants surviving” value ([1]; 1776 mg/dm^2 on soil surface) was 0%. The “Mean root length” value ([1]; 3552 mg/dm^2 on soil surface) was 0 mm, the “Percentage of creeping bentgrass plants surviving” value ([1]; 3552 mg/dm^2 on soil surface) was 0% and the “inhibition of emergence and establishment of creeping bentgrass” value (from here on “inhibition”) [1, 3] was “completely inhibit”. The “inhibition” value [1, 4] was “partially effective”, the “Root Length of Perennial Ryegrass Seedlings Expressed as a Percentage of the Control” value (shortened to “Root Length … as a Percentage of the Control”) [2, 5] was 83% and the “Root Length … as a Percentage of the Control” value [2, 6] was 70%. The “Root Length … as a Percentage of the Control” value [2, 7] was 49%, the “Root Length … as a Percentage of the Control” value [2, 8] was 41% and the “Root Length … as a Percentage of the Control” value [2, 9] was 4%. For the same compound, the “Root Length … as a Percentage of the Control” value [2, 10] was 0% and the “Root Length … as a Percentage of the Control” value [2, 11] was 0%.
With `NC(=O)CC[C@H](NC(=O)[C@@H](N)CCC(N)=O)C(=O)O` [Gln-Gln, glutaminyl-glutamine] (H-Gln-Gln-OH) the “Root Length … as a Percentage of the Control” value [2, 5] was 107%, the “Root Length … as a Percentage of the Control” value [2, 6] was 89% and the “Root Length … as a Percentage of the Control” value [2, 7] was 82%. For the same compound, the “Root Length … as a Percentage of the Control” value [2, 8] was 63%, the “Root Length … as a Percentage of the Control” value [2, 9] was 12% and the “Root Length … as a Percentage of the Control” value [2, 10] was 3%. For the same compound, the “Root Length … as a Percentage of the Control” value [2, 11] was 0%.
`C[C@H](N)C(=O)N[C@@H](C)C(=O)O` [Ala-Ala, alaninyl-alanine] (H-Ala-Ala-OH) was tested, and the “Root Length … as a Percentage of the Control” value [2, 5] was 74%, the “Root Length … as a Percentage of the Control” value [2, 6] was 44% and the “Root Length … as a Percentage of the Control” value [2, 7] was 27%. The “Root Length … as a Percentage of the Control” value [2, 8] was 5%, the “Root Length … as a Percentage of the Control” value [2, 9] was 1% and the “Root Length … as a Percentage of the Control” value [2, 10] was 2%. For the same compound, the “Root Length … as a Percentage of the Control” value [2, 11] was 0% and the “relative effectiveness among the five dipeptides” value [2] was “most effective”.
For `C[C@H](N)C(=O)N[C@@H](CC(N)=O)C(=O)O` [Ala-Asn, alaninylasparagine] (H-Ala-Asn-OH), the “Root Length … as a Percentage of the Control” value [2, 5] was 101%, the “Root Length … as a Percentage of the Control” value [2, 6] was 85% and the “Root Length … as a Percentage of the Control” value [2, 7] was 63%. The “Root Length … as a Percentage of the Control” value [2, 8] was 29%, the “Root Length … as a Percentage of the Control” value [2, 9] was 2% and the “Root Length … as a Percentage of the Control” value [2, 10] was 0%. For the same compound, the “Root Length … as a Percentage of the Control” value [2, 11] was 0% and the “relative effectiveness among the five dipeptides” value [2] was “most effective”.
With `C[C@H](NC(=O)CN)C(=O)O` [Gly-Ala, glycinyl-alanine] (H-Gly-Ala-OH) the “Mean root length” value ([1]; 89 mg/dm^2 on soil surface) was 20 mm, the “Percentage of creeping bentgrass plants surviving” value ([1]; 89 mg/dm^2 on soil surface) was 105% and the “Mean root length” value ([1]; 178 mg/dm^2 on soil surface) was 15 mm. For the same compound, the “Percentage of creeping bentgrass plants surviving” value ([1]; 178 mg/dm^2 on soil surface) was 40%, the “Mean root length” value ([1]; 355 mg/dm^2 on soil surface) was 5 mm and the “Percentage of creeping bentgrass plants surviving” value ([1]; 355 mg/dm^2 on soil surface) was 30%. The “Mean root length” value ([1]; 710 mg/dm^2 on soil surface) was 2 mm, the “Percentage of creeping bentgrass plants surviving” value ([1]; 710 mg/dm^2 on soil surface) was 25% and the “Mean root length” value ([1]; 1066 mg/dm^2 on soil surface) was 2 mm. For the same compound, the “Percentage of creeping bentgrass plants surviving” value ([1]; 1066 mg/dm^2 on soil surface) was 25%, the “Mean root length” value ([1]; 1776 mg/dm^2 on soil surface) was 0 mm and the “Percentage of creeping bentgrass plants surviving” value ([1]; 1776 mg/dm^2 on soil surface) was 0%. The “Mean root length” value ([1]; 3552 mg/dm^2 on soil surface) was 0 mm, the “Percentage of creeping bentgrass plants surviving” value ([1]; 3552 mg/dm^2 on soil surface) was 0% and the “inhibition” value [1, 3] was “completely inhibit”. For the same compound, the “inhibition” value [1, 4] was “partially effective”, the “Root Length … as a Percentage of the Control” value [2, 5] was 95% and the “Root Length … as a Percentage of the Control” value [2, 6] was 68%. The “Root Length … as a Percentage of the Control” value [2, 7] was 29%, the “Root Length … as a Percentage of the Control” value [2, 8] was 16% and the “Root Length … as a Percentage of the Control” value [2, 9] was 9%. For the same compound, the “Root Length … as a Percentage of the Control” value [2, 10] was 2% and the “Root Length … as a Percentage of the Control” value [2, 11] was 0%.
